Measured values: patent US20240123079A1 (Seagen Inc., priority 2021, published 2024)
Read-outs that look alike come from different tables or passages of the source.

System: THP1-Dual™ reporter cells
Assay: THP1-Dual cell reporter assay (IRF-Lucia luciferase reporter)
Format: cell-based, human
Method in brief: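 THP1-Dual monocytic cells (~100,000/well) were exposed to compound for 24 h (ADCs 48 h). Secreted IRF-driven Lucia luciferase in the supernatant was quantified by QUANTI-Luc luminescence.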

[1] = Homo sapiens, THP1-Dual, free compounds, 24 h, Lucia reporter signal, read-out: EC50
[2] = ADCs: drug linker conjugated to a targeted mAb, 48 h

| EC50 [1] [nM] | SMILES | EC50 [2] [ng/mL] | further results |
| --- | --- | --- | --- |
| 14.6 | CCn1nc(C)cc1C(=O)Nc1nc2cc(C(N)=O)cc(OC)c2n1C/C=C/Cn1c(NC(=O)c2cc(C)nn2CC)nc2cc(C(N)=O)cc(OCCCN(C)C(=O)[C@@H](N)CCC(=O)OC)c21 [Compound 117] | – | – |
| 23.6 | CCn1nc(C)cc1C(=O)Nc1nc2cc(C(N)=O)cc(OC)c2n1C/C=C/Cn1c(NC(=O)c2cc(C)nn2CC)nc2cc(C(N)=O)cc(OCCCN(C)C(=O)[C@@H](N)Cc3ccc(OC)cc3)c21 [Compound 118] | – | – |
| 49.9 | CCn1nc(C)cc1C(=O)Nc1nc2cc(C(N)=O)cc(OC)c2n1C/C=C/Cn1c(NC(=O)c2cc(C)nn2CC)nc2cc(C(N)=O)cc(OCCCN(C)C(=O)[C@@H](N)Cc3cn(C)cn3)c21 [Compound 119] | – | – |
| 5.2 | CCn1nc(C)cc1C(=O)Nc1nc2cc(C(N)=O)cc(OC)c2n1C/C=C/Cn1c(NC(=O)c2cc(C)nn2CC)nc2cc(C(N)=O)cc(OCCCN(C)C(=O)[C@@H](N)[C@@H](C)OC)c21 [Compound 120] | – | – |
| – | CCn1nc(C)cc1C(=O)Nc1nc2cc(C(N)=O)cc(OC)c2n1C/C=C/Cn1c(NC(=O)c2cc(C)nn2CC)nc2cc(C(N)=O)cc(OCCCN(C)C(=O)[C@H](CC(C)C)NC(=O)CCN3C(=O)C=CC3=O)c21 [Compound 121] | 3.0 | – |
| – | CCn1nc(C)cc1C(=O)Nc1nc2cc(C(N)=O)cc(OC)c2n1C/C=C/Cn1c(NC(=O)c2cc(C)nn2CC)nc2cc(C(N)=O)cc(OCCCN(C)C(=O)[C@H](Cc3ccccc3)NC(=O)CCN3C(=O)C=CC3=O)c21 [Compound 122] | 5.6 | – |
| – | CCn1nc(C)cc1C(=O)Nc1nc2cc(C(N)=O)cc(OC)c2n1C/C=C/Cn1c(NC(=O)c2cc(C)nn2CC)nc2cc(C(N)=O)cc(OCCCN(C)C(=O)[C@H](CCC(=O)OC)NC(=O)CCN3C(=O)C=CC3=O)c21 [Compound 123] | 1.6 | – |
| – | CCn1nc(C)cc1C(=O)Nc1nc2cc(C(N)=O)cc(OC)c2n1C/C=C/Cn1c(NC(=O)c2cc(C)nn2CC)nc2cc(C(N)=O)cc(OCCCN(C)C(=O)[C@H](Cc3ccc(OC)cc3)NC(=O)CCN3C(=O)C=CC3=O)c21 [Compound 124] | 9.1 | – |
| – | CCn1nc(C)cc1C(=O)Nc1nc2cc(C(N)=O)cc(OC)c2n1C/C=C/Cn1c(NC(=O)c2cc(C)nn2CC)nc2cc(C(N)=O)cc(OCCCN(C)C(=O)[C@@H](NC(=O)CCN3C(=O)C=CC3=O)[C@@H](C)OC)c21 [Compound 125] | 1.4 | – |
| – | CCn1nc(C)cc1C(=O)Nc1nc2cc(C(=O)O)cc(OC)c2n1C/C=C/Cn1c(NC(=O)c2cc(C)nn2CC)nc2cc(C(N)=O)cc(OCCCN(C)C(=O)CCN3C(=O)C=CC3=O)c21 [Compound 126, (E)-1-(4-(5-carbamoyl-7-(3-(3-(2,5-dioxo-2,5-dihydro-1H-pyrrol-1-yl)-N-methylpropanamido)propoxy)-2-(1-ethyl-3-methyl-1H-pyrazole-5-carboxamido)-1H-benzo[d]imidazol-1-yl)but-2-en-1-yl)-2-(1-ethyl-3-methyl-1H-pyrazole-5-carboxamido)-7-methoxy-1H-benzo[d]imidazole-5-carboxylic acid] | – | EC50 (ng/mL) [2]: >10,000 ng/mL |
| 301 | CCn1nc(C)cc1C(=O)Nc1nc2cc(S(=O)(=O)NC)ccc2n1C/C=C/Cn1c(NC(=O)c2cc(C)nn2CC)nc2cc(C(N)=O)cc(OCCCN(C)C(=O)OC(C)(C)C)c21 [Compound 127, tert-butyl (E)-(3-((5-carbamoyl-2-(1-ethyl-3-methyl-1H-pyrazole-5-carboxamido)-1-(4-(2-(1-ethyl-3-methyl-1H-pyrazole-5-carboxamido)-5-(N-methylsulfamoyl)-1H-benzo[d]imidazol-1-yl)but-2-en-1-yl)-1H-benzo[d]imidazol-7-yl)oxy)propyl)(methyl)carbamate] | – | – |
| – | CCn1nc(C)cc1C(=O)Nc1nc2cc(S(=O)(=O)NC)ccc2n1C/C=C/Cn1c(NC(=O)c2cc(C)nn2CC)nc2cc(C(N)=O)cc(OCCCN(C)C(=O)CCN3C(=O)C=CC3=O)c21 [Compound 128, (E)-7-(3-(3-(2,5-dioxo-2,5-dihydro-1H-pyrrol-1-yl)-N-methylpropanamido)propoxy)-2-(1-ethyl-3-methyl-1H-pyrazole-5-carboxamido)-1-(4-(2-(1-ethyl-3-methyl-1H-pyrazole-5-carboxamido)-5-(N-methylsulfamoyl)-1H-benzo[d]imidazol-1-yl)but-2-en-1-yl)-1H-benzo[d]imidazole-5-carboxamide] | – | EC50 (ng/mL) [2]: >10,000 ng/mL |
| > 10000 | CCn1nc(C)cc1C(=O)Nc1nc2cc(S(=O)(=O)NC)ccc2n1C/C=C/Cn1c(NC(=O)c2cc(C)nn2CC)nc2cc(C(N)=O)cc(OCCCNC)c21 [Compound 128a] | – | – |
| 836 | CCn1nc(C)cc1C(=O)Nc1nc2cc(C(=O)OC)cc(OC)c2n1C/C=C/Cn1c(NC(=O)c2cc(C)nn2CC)nc2cc(C(N)=O)cc(OCCCN(C)C(=O)CCN3C(=O)CC(SC[C@H](N)C(=O)O)C3=O)c21 (stereo partly drawn) [Compound 129, S-(1-(3-((3-((5-carbamoyl-2-(1-ethyl-3-methyl-1H-pyrazole-5-carboxamido)-1-((E)-4-(2-(1-ethyl-3-methyl-1H-pyrazole-5-carboxamido)-7-methoxy-5-(methoxycarbonyl)-1H-benzo[d]imidazol-1-yl)but-2-en-1-yl)-1H-benzo[d]imidazol-7-yl)oxy)propyl)(methyl)amino)-3-oxopropyl)-2,5-dioxopyrrolidin-3-yl)-L-cysteine] | – | – |
| 2260 | CCn1nc(C)cc1C(=O)Nc1nc2cc(C(=O)O)cc(OC)c2n1C/C=C/Cn1c(NC(=O)c2cc(C)nn2CC)nc2cc(C(N)=O)cc(OCCCN(C)C(=O)CCN3C(=O)CC(SC[C@H](N)C(=O)O)C3=O)c21 (stereo partly drawn) [Compound 130, 1-((E)-4-(7-(3-(3-(3-(((R)-2-amino-2-carboxyethyl)thio)-2,5-dioxopyrrolidin-1-yl)-N-methylpropanamido)propoxy)-5-carbamoyl-2-(1-ethyl-3-methyl-1H-pyrazole-5-carboxamido)-1H-benzo[d]imidazol-1-yl)but-2-en-1-yl)-2-(1-ethyl-3-methyl-1H-pyrazole-5-carboxamido)-7-methoxy-1H-benzo[d]imidazole-5-carboxylicacid] | – | – |
| 37.4 | CCn1nc(C)cc1C(=O)Nc1nc2cc(C(N)=O)ccc2n1C/C=C/Cn1c(NC(=O)c2cc(C)nn2CC)nc2cc(C(N)=O)cc(OCCCN(C)C(=O)CCCCCN3C(=O)CC(SC[C@H](N)C(=O)O)C3=O)c21 (stereo partly drawn) [Compound 132, S-(1-(6-((3-((5-carbamoyl-1-((E)-4-(5-carbamoyl-2-(1-ethyl-3-methyl-1H-pyrazole-5-carboxamido)-1H-benzo[d]imidazol-1-yl)but-2-en-1-yl)-2-(1-ethyl-3-methyl-1H-pyrazole-5-carboxamido)-1H-benzo[d]imidazol-7-yl)oxy)propyl)(methyl)amino)-6-oxohexyl)-2,5-dioxopyrrolidin-3-yl)-L-cysteine] | – | – |
| – | CCn1nc(C)cc1C(=O)Nc1nc2cc(C(N)=O)cc(OC)c2n1C/C=C/Cn1c(NC(=O)c2cc(C)nn2CC)nc2cc(C(N)=O)cc(OCCCN(C(=O)CCN3C(=O)C=CC3=O)C3CC3)c21 [Compound 133, (E)-1-(4-(5-carbamoyl-2-(1-ethyl-3-methyl-1H-pyrazole-5-carboxamido)-7-methoxy-1H-benzo[d]imidazol-1-yl)but-2-en-1-yl)-7-(3-(N-cyclopropyl-3-(2,5-dioxo-2,5-dihydro-1H-pyrrol-1-yl)propanamido)propoxy)-2-(1-ethyl-3-methyl-1H-pyrazole-5-carboxamido)-1H-benzo[d]imidazole-5-carboxamide] | 12.2 | – |
| – | CCn1nc(C)cc1C(=O)Nc1nc2cc(C(N)=O)cc(OC)c2n1C/C=C/Cn1c(NC(=O)c2cc(C)nn2CC)nc2cc(C(N)=O)cc(OCCC[N+](C)(C)Cc3ccc(O[C@@H]4O[C@H](C(=O)O)[C@@H](O)[C@H](O)[C@H]4O)cc3NC(=O)CCNC(=O)CCN3C(=O)C=CC3=O)c21.O=C([O-])C(F)(F)F [Compound 134] | 10.3 | – |
| 2010 | CCn1nc(C)cc1C(=O)Nc1nc2cc(S(N)(=O)=O)ccc2n1C/C=C/Cn1c(NC(=O)c2cc(C)nn2CC)nc2cc(C(N)=O)cc(OCCC3CNC3)c21 [Compound 135, (E)-7-(2-(azetidin-3-yl)ethoxy)-2-(1-ethyl-3-methyl-1H-pyrazole-5-carboxamido)-1-(4-(2-(1-ethyl-3-methyl-1H-pyrazole-5-carboxamido)-5-sulfamoyl-1H-benzo[d]imidazol-1-yl)but-2-en-1-yl)-1H-benzo[d]imidazole-5-carboxamide] | – | – |
| > 5000 | CCn1nc(C)cc1C(=O)Nc1nc2cc(S(N)(=O)=O)ccc2n1C/C=C/Cn1c(NC(=O)c2cc(C)nn2C)nc2cc(C(N)=O)cc(OCCC3CNC3)c21 [Compound 136, (E)-7-(2-(azetidin-3-yl)ethoxy)-2-(1,3-dimethyl-1H-pyrazole-5-carboxamido)-1-(4-(2-(1-ethyl-3-methyl-1H-pyrazole-5-carboxamido)-5-sulfamoyl-1H-benzo[d]imidazol-1-yl)but-2-en-1-yl)-1H-benzo[d]imidazole-5-carboxamide] | – | – |
| 1680 | CCn1nc(C)cc1C(=O)Nc1nc2cc(S(N)(=O)=O)ccc2n1C/C=C/Cn1c(NC(=O)c2cc(C)nn2CC)nc2cc(C(N)=O)cc(OCCCOC3CNC3)c21 [Compound 137, (E)-7-(3-(azetidin-3-yloxy)propoxy)-2-(1-ethyl-3-methyl-1H-pyrazole-5-carboxamido)-1-(4-(2-(1-ethyl-3-methyl-1H-pyrazole-5-carboxamido)-5-sulfamoyl-1H-benzo[d]imidazol-1-yl)but-2-en-1-yl)-1H-benzo[d]imidazole-5-carboxamide] | – | – |
| > 5000 | CCn1nc(C)cc1C(=O)Nc1nc2cc(S(N)(=O)=O)ccc2n1C/C=C/Cn1c(NC(=O)c2cc(C)nn2C)nc2cc(C(N)=O)cc(OCCCOC3CNC3)c21 [Compound 138] | – | – |
| > 4000 | CCn1nc(C)cc1C(=O)Nc1nc2cc(S(N)(=O)=O)ccc2n1C/C=C/Cn1c(NC(=O)c2cc(C)nn2C)nc2cc(C(N)=O)cc(OCCCNC)c21 [Compound 139] | – | – |
